The values below are quoted from earlier work in US9682072B2, “Compositions and methods for treatment of lung dysfunction” (Children's Hospital Medical Center, priority 2015, dated 2017).

Molecules are shown by their SMILES.

In data set [1] the test system is ovalbumin-induced lung inflammation. Particulars: mouse, in vivo.
A further data set concerns the target T1, FOXM1 (Homo sapiens, UniProt Q08050).
T1 sequence (Q08050 1-763): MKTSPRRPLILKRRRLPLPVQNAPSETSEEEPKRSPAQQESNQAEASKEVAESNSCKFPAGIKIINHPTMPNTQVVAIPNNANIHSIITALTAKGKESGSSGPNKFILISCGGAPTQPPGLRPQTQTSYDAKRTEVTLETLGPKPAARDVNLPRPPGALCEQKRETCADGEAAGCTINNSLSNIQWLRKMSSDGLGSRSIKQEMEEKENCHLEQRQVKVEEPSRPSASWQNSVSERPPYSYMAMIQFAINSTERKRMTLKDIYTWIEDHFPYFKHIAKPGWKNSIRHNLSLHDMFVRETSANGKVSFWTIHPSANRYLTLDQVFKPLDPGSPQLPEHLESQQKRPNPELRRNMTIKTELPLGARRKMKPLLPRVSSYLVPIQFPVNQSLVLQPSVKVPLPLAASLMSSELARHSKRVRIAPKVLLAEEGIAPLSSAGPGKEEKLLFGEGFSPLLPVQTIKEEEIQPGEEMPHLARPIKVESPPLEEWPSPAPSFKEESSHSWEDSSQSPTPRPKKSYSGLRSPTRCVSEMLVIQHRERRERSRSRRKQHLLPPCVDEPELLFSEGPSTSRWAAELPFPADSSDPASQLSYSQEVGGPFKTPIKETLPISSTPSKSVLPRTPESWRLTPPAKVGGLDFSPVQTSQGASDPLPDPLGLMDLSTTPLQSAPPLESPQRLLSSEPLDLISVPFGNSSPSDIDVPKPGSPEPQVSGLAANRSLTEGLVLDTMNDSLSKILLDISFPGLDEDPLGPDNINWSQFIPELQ

On to `N#CC(=C(/N)Sc1ccccc1N)/C(C#N)=C(\N)Sc1ccccc1N` [Compound U0126], for which, in data set [1], the ovalbumin-induced lung inflammation entry is “diminished”. Regarding `Nc1c(C(=O)Nc2ccc(F)cc2)sc2nc(-c3cccs3)cc(C(F)(F)F)c12` [FDI-6], on FOXM1, the “binding of FOXM1 to its target DNA” value is listed as “inhibits”.
